Experimental findings from PubChem BioAssay (NCI) are described below.

Values joined by “and” are separate entries in the source; they are usually repeats but may differ in a detail not shown here. Identical values can stand only once.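 Dose response: 5 concentrations. Exposure: 48 h. Format: 96-well plates. Endpoint: linear interpolation; highest concentration if not reached. Abbreviation: GI50, concentration required for 50% inhibition of growth. Definition used: TGI = concentration required for complete inhibition of growth.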

Some test systems named below: CAKI-1 renal; COLO 205 colon; LOX IMVI melanoma; NCI-H23 lung; NCI-H522 lung; OVCAR-4 ovarian; RXF 393 renal; SF-295 CNS; SK-MEL-2 melanoma; SR leukemia.
Common to all, as to assay: NCI-60 cell line screen, 48 h

Consider `Cc1cc[c-]cc1.Fc1c[c-]c(-c2ccccn2)c(F)c1.[Pt+2].c1ccc(P(C[PH+](c2ccccc2)c2ccccc2)c2ccccc2)cc1`, for which the GI50 in the experiment on CAKI-1 renal is 2.43 µM; in the experiment on COLO 205 colon it was 1.84 µM; in the experiment on LOX IMVI melanoma, 2.19 µM; in the experiment on NCI-H23 lung, 2.21 µM; in the experiment on NCI-H522 lung, 2.12 µM; in the experiment with OVCAR-4 ovarian, 2.17 µM. Moreover, the figures for the GI50 with RXF 393 renal, with SF-295 CNS and in the experiment on SK-MEL-2 melanoma were 2.45 µM, 2.56 µM and 2.36 µM, respectively. Further, the TGI came out at 9.03 µM in the experiment with CAKI-1 renal; 3.76 µM in the experiment on COLO 205 colon; 6.24 µM in the experiment with LOX IMVI melanoma; 8.67 µM in the experiment on NCI-H23 lung; 8.27 µM with NCI-H522 lung; 9.4 µM with OVCAR-4 ovarian. Besides, the TGI stood at 8.64 µM with RXF 393 renal, 10.2 µM in the experiment on SF-295 CNS and 6.61 µM in the experiment on SK-MEL-2 melanoma.
With `C[C@@]12CCCc3coc(c31)C(=O)c1cc3c(cc12)C(=O)C=CC3=O`, the GI50 in the experiment with CAKI-1 renal, in the experiment with LOX IMVI melanoma, with NCI-H522 lung, in the experiment with OVCAR-4 ovarian, with RXF 393 renal and with SK-MEL-2 melanoma was above 1 µM in each case. For the same compound, the TGI is > 1 µM and 28.5 µM with CAKI-1 renal; above 1 µM in the experiment with COLO 205 colon; > 1 µM and 35.1 µM in the experiment with LOX IMVI melanoma; 29.7 µM with NCI-H23 lung; > 1 µM and 19.5 µM in the experiment with NCI-H522 lung; > 1 µM and 28.9 µM with OVCAR-4 ovarian. Also, the TGI in the experiment on RXF 393 renal is > 1 µM and 29.1 µM; with SF-295 CNS, above 1 µM; in the experiment with SK-MEL-2 melanoma, > 1 µM and 29 µM.
Take `COc1ccc(C(=O)COc2cccc(/C=C3\Oc4ccc5ccccc5c4C3=O)c2)cc1`: the GI50 is 10.7 µM in the experiment on CAKI-1 renal; 2.45 µM with COLO 205 colon; 1.56 µM in the experiment on LOX IMVI melanoma; 3.38 µM in the experiment with NCI-H23 lung; 1.46 µM in the experiment on NCI-H522 lung; 5.08 µM in the experiment with OVCAR-4 ovarian. Further, the GI50 is 0.545 µM with RXF 393 renal, 14.3 µM in the experiment on SF-295 CNS and 3.76 µM with SK-MEL-2 melanoma. Also, the TGI in the experiment on CAKI-1 renal stood at 23.5 µM; with COLO 205 colon, 6.94 µM; in the experiment with LOX IMVI melanoma it was 3.08 µM; in the experiment on NCI-H23 lung, 16.8 µM; with NCI-H522 lung, 3.29 µM; with OVCAR-4 ovarian, 17.5 µM. Also, the TGI with RXF 393 renal came out at 1.77 µM; in the experiment with SF-295 CNS it was 36.4 µM; with SK-MEL-2 melanoma, 16.6 µM.
As for `CC(=O)/C=C/c1ccc(C#Cc2ccccc2)s1`, the GI50 in the experiment with CAKI-1 renal was 19.3 µM; in the experiment on COLO 205 colon it was 16.9 µM; in the experiment with LOX IMVI melanoma, 18 µM; with NCI-H23 lung it was 14.4 µM; in the experiment on NCI-H522 lung, 12.7 µM; with OVCAR-4 ovarian it was 13.1 µM. Further, the GI50 in the experiment with RXF 393 renal was 16.2 µM; in the experiment on SF-295 CNS, 19.1 µM; in the experiment with SK-MEL-2 melanoma it was 20.5 µM. The TGI stood at 36.2 µM in the experiment on CAKI-1 renal; 31 µM in the experiment with COLO 205 colon; 31.9 µM with LOX IMVI melanoma; 27.4 µM in the experiment on NCI-H23 lung; 25.4 µM in the experiment with NCI-H522 lung; 28.6 µM with OVCAR-4 ovarian. For the same compound, the TGI with RXF 393 renal came to 33 µM; with SF-295 CNS, 42.7 µM; in the experiment with SK-MEL-2 melanoma it was 35.4 µM.
Take `C=CCNC(=O)N(CCC)CCCCC(NC(C)=O)C(=O)NCc1ccccc1` (stereo not given): the TGI in the experiment on CAKI-1 renal, in the experiment on COLO 205 colon, in the experiment with LOX IMVI melanoma, in the experiment with NCI-H23 lung, in the experiment with NCI-H522 lung and in the experiment on OVCAR-4 ovarian was above 100 µM in each case. Moreover, the TGI in the experiment with RXF 393 renal, with SF-295 CNS and in the experiment with SK-MEL-2 melanoma was above 100 µM throughout.
Consider `COc1ccc(C2c3cc(OC)c(OC)cc3C(Cc3ccc([N+](=O)[O-])cc3)C2c2ccc([N+](=O)[O-])cc2)cc1OC` (stereo not given), for which the TGI in the experiment with CAKI-1 renal, with COLO 205 colon, with LOX IMVI melanoma, in the experiment with NCI-H23 lung, in the experiment with NCI-H522 lung and with OVCAR-4 ovarian was above 100 µM in each case. The TGI in the experiment on RXF 393 renal, in the experiment with SF-295 CNS and in the experiment on SK-MEL-2 melanoma was above 100 µM in each case.
On to `CC12CCCCC1(C)C2Sc1ccccc1` (stereo not given), for which the TGI was above 100 µM in the experiment with CAKI-1 renal; above 100 µM with COLO 205 colon; above 61 µM in the experiment with LOX IMVI melanoma; above 100 µM with NCI-H23 lung; above 69.3 µM with NCI-H522 lung; above 100 µM in the experiment with OVCAR-4 ovarian. Moreover, the TGI in the experiment on RXF 393 renal is above 70.3 µM; with SF-295 CNS it was above 100 µM; with SK-MEL-2 melanoma it was 50.7 µM.
As for `COc1ccc(OC)c2c(/C=C/c3ccc(N(C)C)cc3)ccnc12`, the TGI in the experiment on CAKI-1 renal, in the experiment on COLO 205 colon, in the experiment with LOX IMVI melanoma, in the experiment with NCI-H23 lung, in the experiment on NCI-H522 lung and with OVCAR-4 ovarian was above 10 µM in each case. Moreover, the TGI in the experiment on RXF 393 renal, with SF-295 CNS and in the experiment with SK-MEL-2 melanoma was above 10 µM in each case.
As for `COc1cc(C)c2c(c1C)OC(=O)c1c(C)c(Cl)c(O)c(C=O)c1O2`, the TGI with CAKI-1 renal was above 100 µM; with COLO 205 colon it was 76.7 µM; with LOX IMVI melanoma, 42.8 µM; with NCI-H23 lung, 32 µM; with SR leukemia it was 31.9 µM.
